Here are results for 5 compounds from US5656308A, “Non-reducing oligosaccharide with neotrehalose structure, and its production and uses” (Kabushiki Kaisha Hayashibara Seibutsu Kagaku Kenkyujo, priority 1993, dated 1997).

The series deals with mice. Briefly: Acute toxicity in mice upon oral administration. Format: in vivo. The protocol:
High-purity β-maltosyl α-glucoside, α-maltosyl β-glucoside, β-maltotriosyl α-glucoside, α-maltotriosyl β-glucoside and β-maltosyl α-maltoside prepared by the method in Experiment 2 were tested for acute toxicity in mice upon oral administration.

SMILES strings stand for the structures.

Regarding `OC[C@H]1O[C@@H](O[C@H]2O[C@H](CO)[C@@H](O[C@H]3O[C@H](CO)[C@@H](O[C@H]4O[C@H](CO)[C@@H](O)[C@H](O)[C@H]4O)[C@H](O)[C@H]3O)[C@H](O)[C@H]2O)[C@H](O)[C@@H](O)[C@@H]1O` [α-maltotriosyl β-glucoside, O-α-D-gluco- pyranosyl-(1→4)-O-α-D-glucopyranosyl-(1→4)-α-D-glucopyranosyl β-D-glucopyranoside], the “acute toxicity (in words)” value is on record as “less toxic” and the “death with maximum administrable dose” value was “no death was observed”.
With `OC[C@H]1O[C@H](O[C@@H]2O[C@H](CO)[C@@H](O[C@H]3O[C@H](CO)[C@@H](O)[C@H](O)[C@H]3O)[C@H](O)[C@H]2O)[C@H](O)[C@@H](O)[C@@H]1O` [β-maltosyl α-glucoside, O-α-D-glucopyranosyl-(1→4)-β-D-glucopyranosyl α-D-glucopyranoside], the “acute toxicity (in words)” value is on record as “less toxic” and the “death with maximum administrable dose” value was “no death was observed”.
In the case of `OC[C@H]1O[C@H](O[C@H]2[C@H](O)[C@@H](O)[C@H](O[C@H]3O[C@H](CO)[C@@H](O[C@H]4O[C@H](CO)[C@@H](O)[C@H](O)[C@H]4O)[C@H](O)[C@H]3O)O[C@@H]2CO)[C@H](O)[C@@H](O)[C@@H]1O` [β-maltosyl α-maltoside, O-α-D-glucopyranosyl-(1→4)-β-D-glucopyranosyl α-D-maltoside], the “acute toxicity (in words)” value was “less toxic” and the “death with maximum administrable dose” value is on record as “no death was observed”.
In the case of `OC[C@H]1O[C@@H](O[C@H]2O[C@H](CO)[C@@H](O[C@H]3O[C@H](CO)[C@@H](O)[C@H](O)[C@H]3O)[C@H](O)[C@H]2O)[C@H](O)[C@@H](O)[C@@H]1O` [α-maltosyl β-glucoside, O-α-D-glucopyranosyl-(1→4)-α-D-glucopyranosyl β-D-glucopyranoside], the “acute toxicity (in words)” value is listed as “less toxic” and the “death with maximum administrable dose” value is “no death was observed”.
In the case of `OC[C@H]1O[C@H](O[C@@H]2O[C@H](CO)[C@@H](O[C@H]3O[C@H](CO)[C@@H](O[C@H]4O[C@H](CO)[C@@H](O)[C@H](O)[C@H]4O)[C@H](O)[C@H]3O)[C@H](O)[C@H]2O)[C@H](O)[C@@H](O)[C@@H]1O` [β-maltotriosyl α-glucoside, O-α-D-glucopyranosyl-(1→4)-O-α-D-glucopyranosyl-(1→4)-β-D-glucopyranosyl α-D-glucopyranoside], the “acute toxicity (in words)” value is given as “less toxic” and the “death with maximum administrable dose” value is reported as “no death was observed”.
